{
  "source": "ChEMBL document CHEMBL1129242",
  "about": "“(2E)-5-[3-[(phenylsulfonyl)amino]phenyl]-pent-2-en-4-ynohydroxamic acid and its derivatives as novel and potent inhibitors of ras transformation” (1996)",
  "key": {"NIH3T3 [1]": {"tested_on": "NIH3T3", "test": "Minimum inhibitory concentration for the inhibition of transformation in ras- transformed cells(ras/ NIH3T3)", "format": "functional", "conditions": "Mus musculus"}, "NIH3T3 [2]": {"tested_on": "NIH3T3", "test": "Minimum inhibitory concentration for the inhibition of transformation in ras- transformed cells(ras/ NIH3T3); Not effective at the highest concentration tested (100 uM)", "format": "functional, cell-based", "conditions": "Mus musculus"}},
  "data": [
    {"compound": "O=C(/C=C/C#Cc1cccc(NS(=O)(=O)c2ccc3ccccc3c2)c1)NO", "values": [
      {"measurement": "MIC", "setting": "NIH3T3 [1]", "value": 0.08, "unit": "µM"}
    ]},
    {"compound": "CN(c1ccccc1/C=C/C=C/C(=O)NO)S(=O)(=O)c1ccccc1", "values": [
      {"measurement": "MIC", "setting": "NIH3T3 [1]", "value": 0.8, "unit": "µM"}
    ]},
    {"compound": "O=C(/C=C/C#Cc1cccc(NS(=O)(=O)c2ccc(F)cc2)c1)NO", "values": [
      {"measurement": "MIC", "setting": "NIH3T3 [1]", "value": 0.08, "unit": "µM"}
    ]},
    {"compound": "O=C(CCCC/C=C\\c1ccccc1NS(=O)(=O)c1ccccc1)NO", "values": [
      {"measurement": "MIC", "setting": "NIH3T3 [1]", "value": 17, "unit": "µM"}
    ]},
    {"compound": "O=C(/C=C/C#Cc1cccc(NS(=O)(=O)c2ccc(Br)cc2)c1)NO", "values": [
      {"measurement": "MIC", "setting": "NIH3T3 [1]", "value": 0.16, "unit": "µM"}
    ]},
    {"compound": "O=C(/C=C/C=C/c1cc2ccccc2cc1NS(=O)(=O)c1ccccc1)NO", "values": [
      {"measurement": "MIC", "setting": "NIH3T3 [1]", "value": 0.32, "unit": "µM"}
    ]},
    {"compound": "O=C(/C=C/C=C/c1cccc(NS(=O)(=O)c2ccccc2)c1)NO", "values": [
      {"measurement": "MIC", "setting": "NIH3T3 [1]", "value": 0.3, "unit": "µM"}
    ]},
    {"compound": "O=C(/C=C/C=C/c1ccc(NS(=O)(=O)c2ccccc2)cc1)NO", "values": [
      {"measurement": "MIC", "setting": "NIH3T3 [1]", "value": 1.6, "unit": "µM"}
    ]},
    {"compound": "O=C(CCCC/C=C/c1ccccc1NS(=O)(=O)c1ccccc1)NO", "values": [
      {"measurement": "MIC", "setting": "NIH3T3 [1]", "value": 4.3, "unit": "µM"}
    ]},
    {"compound": "Cc1ccc(S(=O)(=O)Nc2cccc(C#C/C=C/C(=O)NO)c2)cc1", "values": [
      {"measurement": "MIC", "setting": "NIH3T3 [1]", "value": 0.16, "unit": "µM"}
    ]},
    {"compound": "COc1ccc(S(=O)(=O)Nc2cccc(C#C/C=C/C(=O)NO)c2)cc1", "values": [
      {"measurement": "MIC", "setting": "NIH3T3 [1]", "value": 0.08, "unit": "µM"}
    ]},
    {"compound": "CN(c1cccc(/C=C/C=C/C(=O)NO)c1)S(=O)(=O)c1ccccc1", "values": [
      {"measurement": "MIC", "setting": "NIH3T3 [1]", "value": 0.6, "unit": "µM"}
    ]},
    {"compound": "O=C(/C=C/C#CC#Cc1cccc(NS(=O)(=O)c2ccccc2)c1)NO", "values": [
      {"measurement": "MIC", "setting": "NIH3T3 [2]", "value": "Not effective at the highest concentration tested (100 uM)"}
    ]},
    {"compound": "O=C(/C=C/C=C/c1cc2ccccc2n1S(=O)(=O)c1ccccc1)NO", "values": [
      {"measurement": "MIC", "setting": "NIH3T3 [1]", "value": 0.4, "unit": "µM"}
    ]},
    {"compound": "O=C(/C=C/C#Cc1cccc(NS(=O)(=O)c2ccc([N+](=O)[O-])cc2)c1)NO", "values": [
      {"measurement": "MIC", "setting": "NIH3T3 [1]", "value": 0.64, "unit": "µM"}
    ]},
    {"compound": "O=C(/C=C/C=C/c1ccccc1NS(=O)(=O)c1ccccc1)NO", "values": [
      {"measurement": "MIC", "setting": "NIH3T3 [1]", "value": 1.6, "unit": "µM"}
    ]}
  ]
}
